What was measured:
[1] = Stability Test 2 (140° C.), heating, powder X-ray diffraction; format: physicochemical; conditions: after heating to 140° C.
Protocol: The powder X-ray diffraction data of each crystal polymorph were measured by X-ray diffractometer RINT 2100 ultima+manufactured by Rigaku Denki Corporation (measuring conditions; CuK α rays, 40 kV in X-ray tube voltage, 40 mA in X-ray tube current). The 2θ value of diffraction pattern by the powder X-ray diffractometry may deviate in some cases by a factor of about 0.5° depending on the sample conditions and measuring conditions. In addition, due to the properties of data, a total diffraction pattern of the powder X-ray diffractometry is important for the identification of crystals. The TG/DTA measurements of each crystal polymorph were conducted by thermogravimetry analyzer (TG/DTA) ThermoPlus 2 series TG8120 manufactured by Rigaku Denki Corporation (measuring conditions; temperature rising rate 10° C./minutes, samplepan (Al), reference (Al2O3), under a nitrogen atmosphere). Melting points of each crystal were searched from differential thermal analysis (DTA) endothermic peak (extrapolation). The solid state C^13-NMR spectrums of each crystal polymorph were measured by AVANCE/DRX500 manufactured by Bruker (measuring conditions; accumulated counts 512 times, contact time 3 msec, repeated time 5 sec, probe 4 mm MAS, observed frequency 125.77 Mhz, spinning rate 10000 Hz). […]

[2] = Stability Test 1 (60° C.), storage for a week; HPLC, powder X-ray diffraction, appearance; format: physicochemical; conditions: for residual percentage (chemical purity %): HPLC; for crystal form: powder X-ray diffraction
Protocol: The powder X-ray diffraction data of each crystal polymorph were measured by X-ray diffractometer RINT 2100 ultima+manufactured by Rigaku Denki Corporation (measuring conditions; CuK α rays, 40 kV in X-ray tube voltage, 40 mA in X-ray tube current). The 2θ value of diffraction pattern by the powder X-ray diffractometry may deviate in some cases by a factor of about 0.5° depending on the sample conditions and measuring conditions. In addition, due to the properties of data, a total diffraction pattern of the powder X-ray diffractometry is important for the identification of crystals. The TG/DTA measurements of each crystal polymorph were conducted by thermogravimetry analyzer (TG/DTA) ThermoPlus 2 series TG8120 manufactured by Rigaku Denki Corporation (measuring conditions; temperature rising rate 10° C./minutes, samplepan (Al), reference (Al2O3), under a nitrogen atmosphere). Melting points of each crystal were searched from differential thermal analysis (DTA) endothermic peak (extrapolation). The solid state C^13-NMR spectrums of each crystal polymorph were measured by AVANCE/DRX500 manufactured by Bruker (measuring conditions; accumulated counts 512 times, contact time 3 msec, repeated time 5 sec, probe 4 mm MAS, observed frequency 125.77 Mhz, spinning rate 10000 Hz).
After ethyl (−)-2-[4-[2-[[(1S,2R)-2-hydroxy-2-(4-hydroxyphenyl)-1-methylethyl]amino]ethyl]-2,5-dimethylphenoxy]-acetate hydrochloride obtained in Example 1 was stored at 60° C. for a week, chemical stability was determined by measuring the residual percentage of ethyl (−)-2-[4-[2-[[(1S,2R)-2-hydroxy-2-(4-hydroxylphenyl)-1-methylethyl]amino]ethyl]-2,5-dimethylphenoxy]acetate hydrochloride by HPLC and polymorphic stability was examined by the powder X-ray diffraction measurement.

[3] = after 1 week storage at 60° C., hydrochloride
[4] = after 1 week storage at 60° C., listed as crystal form C, hydrochloride

change of the crystalline form [1]: still crystalline form C | residual percentage (chemical purity %) [2, 3]: constant | residual percentage (chemical purity %) [2, 4]: 99.6% | appearance [2, 3]: no change in appearance | appearance [2, 4]: white | crystal form [2, 3]: polymorphic transformation did not occur | crystal form [2, 4]: crystal form C | appearance ([2]; at start): white | residual percentage (chemical purity %) ([2]; at start): 99.6% | crystal form ([2]; at start): crystal form C
SMILES: CCOC(=O)COc1cc(C)c(CCN[C@@H](C)[C@H](O)c2ccc(O)cc2)cc1C.Cl [crystalline form C, ethyl (−)-2-[4-[2-[[(1S,2R)-2-hydroxy-2-(4-hydroxyphenyl)-1-methylethyl]amino]ethyl]-2,5-dimethylphenoxy]-acetate hydrochloride]
